Experimental data: ChEMBL document CHEMBL4219234, “4-Substituted carbamazepine derivatives: Conformational analysis and sodium channel-blocking properties” (Bioorg Med Chem, 2018)
The source made the active and inactive calls. No cut-off for these calls is given here.

How the values were obtained:
[1] = Solubility of the compound in DMSO at > 30 uM; format: physicochemical
[2] = target: Sodium channel protein type 2 subunit alpha (Homo sapiens) (UniProt Q99250); assay: Inhibition of human Nav1.2 expressed in CHOK1 cells assessed as reduction in peak inward current at 30th pulse using holding potential of -50 mV by patch clamp assay; format: cell-based
Chain of Sodium channel protein type 2 subunit alpha (Homo sapiens) (Q99250 whole entry, looked up): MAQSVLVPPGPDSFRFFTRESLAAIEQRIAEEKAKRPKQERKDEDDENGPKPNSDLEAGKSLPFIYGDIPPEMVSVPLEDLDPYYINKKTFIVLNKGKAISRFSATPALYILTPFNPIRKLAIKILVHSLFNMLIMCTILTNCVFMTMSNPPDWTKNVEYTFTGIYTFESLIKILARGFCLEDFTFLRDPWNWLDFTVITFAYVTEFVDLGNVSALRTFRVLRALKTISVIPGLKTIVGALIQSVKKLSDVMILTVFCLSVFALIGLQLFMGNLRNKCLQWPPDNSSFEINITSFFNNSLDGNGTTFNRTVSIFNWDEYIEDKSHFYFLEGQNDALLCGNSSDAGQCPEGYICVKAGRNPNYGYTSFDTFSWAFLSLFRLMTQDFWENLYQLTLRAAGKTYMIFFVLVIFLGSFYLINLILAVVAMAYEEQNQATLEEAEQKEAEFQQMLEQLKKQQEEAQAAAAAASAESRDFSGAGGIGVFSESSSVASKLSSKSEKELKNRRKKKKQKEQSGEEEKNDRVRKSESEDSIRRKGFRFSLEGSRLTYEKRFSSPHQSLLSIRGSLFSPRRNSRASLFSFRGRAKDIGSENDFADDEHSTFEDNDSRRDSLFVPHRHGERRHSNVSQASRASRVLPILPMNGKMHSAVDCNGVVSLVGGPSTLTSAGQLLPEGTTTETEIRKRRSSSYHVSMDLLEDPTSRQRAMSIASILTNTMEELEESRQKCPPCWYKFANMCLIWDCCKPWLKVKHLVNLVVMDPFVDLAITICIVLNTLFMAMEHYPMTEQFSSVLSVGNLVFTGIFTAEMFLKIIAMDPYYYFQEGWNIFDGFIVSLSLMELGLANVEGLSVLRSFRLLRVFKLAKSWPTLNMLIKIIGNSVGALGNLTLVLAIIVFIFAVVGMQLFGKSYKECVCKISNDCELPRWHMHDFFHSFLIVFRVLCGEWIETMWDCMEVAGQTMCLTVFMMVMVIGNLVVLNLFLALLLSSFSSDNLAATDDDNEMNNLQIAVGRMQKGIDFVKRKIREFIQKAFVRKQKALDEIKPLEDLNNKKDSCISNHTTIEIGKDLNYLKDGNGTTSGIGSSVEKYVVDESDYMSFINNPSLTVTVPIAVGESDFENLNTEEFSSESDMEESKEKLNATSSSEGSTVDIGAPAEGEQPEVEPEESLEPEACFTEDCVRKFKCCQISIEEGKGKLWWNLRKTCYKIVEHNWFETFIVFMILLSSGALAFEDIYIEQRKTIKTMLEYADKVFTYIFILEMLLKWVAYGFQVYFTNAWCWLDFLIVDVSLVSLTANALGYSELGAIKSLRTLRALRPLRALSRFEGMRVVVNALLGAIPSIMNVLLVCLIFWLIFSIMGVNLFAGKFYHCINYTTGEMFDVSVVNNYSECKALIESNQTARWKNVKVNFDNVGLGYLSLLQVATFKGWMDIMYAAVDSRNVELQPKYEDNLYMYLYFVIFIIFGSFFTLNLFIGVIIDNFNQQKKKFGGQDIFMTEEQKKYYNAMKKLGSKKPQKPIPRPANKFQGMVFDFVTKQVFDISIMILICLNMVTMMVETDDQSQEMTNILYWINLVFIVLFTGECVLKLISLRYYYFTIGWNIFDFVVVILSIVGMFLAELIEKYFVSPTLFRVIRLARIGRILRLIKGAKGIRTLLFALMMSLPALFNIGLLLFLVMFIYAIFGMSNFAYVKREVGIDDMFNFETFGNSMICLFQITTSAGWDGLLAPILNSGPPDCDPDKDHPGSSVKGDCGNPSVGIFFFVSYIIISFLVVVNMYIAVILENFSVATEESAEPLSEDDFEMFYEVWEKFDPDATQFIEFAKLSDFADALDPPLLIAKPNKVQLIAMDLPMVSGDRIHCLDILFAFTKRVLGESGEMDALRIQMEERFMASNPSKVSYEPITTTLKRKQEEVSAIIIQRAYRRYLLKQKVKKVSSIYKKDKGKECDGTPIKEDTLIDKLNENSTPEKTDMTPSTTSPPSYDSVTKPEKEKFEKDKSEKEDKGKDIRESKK

[3] = Solubility of the compound in DMSO at > 14.3 uM; format: physicochemical

Structure (SMILES) | solubility [1] | inhibition [2] | solubility [3]
Cc1cccc2c1N(C(N)=O)c1ccccc1C=C2 | Insoluble | Active | –
NC(=O)N1c2ccccc2C=Cc2ccccc21 | – | Active | –
NC(=O)N1c2ccccc2C=Cc2cccc(Cl)c21 | – | Active | Insoluble
